Read-outs that look alike come from different tables or passages of the source.
Key:
Format in all cases: cell-based
PLK1 = molecular target: T1, PLK1 (Homo sapiens, UniProt P53350); experiment: Luciferase assay for PLK1 in HeLa LgBit (Plk1-HiBit KI) cell line; conditions: compound 300 nM, luminescence after 9 hours
T1 construct: endogenous in cells; host or cells: HeLa LgBit (Plk1-HiBit KI): HeLa stably expressing LgBit, with HiBit knocked in at the endogenous Plk1 locus by CRISPR/Cas9
How it was run: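 HeLa cells stably expressing LgBit, with HiBit knocked in at the endogenous Plk1 C-terminus, synchronized by 2 mM thymidine block for 24 h, then released and cultured 18 h. Compound added at 300 nM with Endurazine substrate; luminescence tracked in real time and expressed as ratio to DMSO.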

H526 cell line = experiment: Cell viability assay for NCI-H526 cell line (EZ-Cytox); conditions: Homo sapiens, NCI-H526, 120 h; H526 cells, 3-fold dilutions 3000 nM to 0.46 nM, 5 days
How it was run: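 Read-out was EZ-Cytox colorimetric absorbance at 450 nm, taken after brief plate shaking, with IC50 derived. Before reading, H526 cells had been cultured with test compound for 5 days.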

MRC-5 cell line = experiment: Cell viability assay for MRC-5 cell line (EZ-Cytox cytotoxicity experiment); conditions: Homo sapiens, MRC5, 120 h, MRC-5 normal cell line, 5 days
Experimental: 4. Cell Viability Assay for MRC-5 Cell Line
(1) Culture of MRC-5 Cell Line
Passage of cultured cells was maintained within P15.
(2) Treatment of Compounds of the Present Invention
Then, it was cultured in 37° C.
(3) Cytotoxicity Experiment
CO2 incubator for 4 hours.

[1] = 3-fold dilutions 10000 nM to 1.52 nM, Exemplary Compounds, numeric values, read-out: Activity: IC50 value (nM) to MRC-5 cell line
[2] = highest concentration 10000 nM, N.D. = no cytotoxicity until 10 μM, read-out: Activity: IC50 value to MRC-5 cell line, N.D. cells

T1 sequence (P53350 whole entry): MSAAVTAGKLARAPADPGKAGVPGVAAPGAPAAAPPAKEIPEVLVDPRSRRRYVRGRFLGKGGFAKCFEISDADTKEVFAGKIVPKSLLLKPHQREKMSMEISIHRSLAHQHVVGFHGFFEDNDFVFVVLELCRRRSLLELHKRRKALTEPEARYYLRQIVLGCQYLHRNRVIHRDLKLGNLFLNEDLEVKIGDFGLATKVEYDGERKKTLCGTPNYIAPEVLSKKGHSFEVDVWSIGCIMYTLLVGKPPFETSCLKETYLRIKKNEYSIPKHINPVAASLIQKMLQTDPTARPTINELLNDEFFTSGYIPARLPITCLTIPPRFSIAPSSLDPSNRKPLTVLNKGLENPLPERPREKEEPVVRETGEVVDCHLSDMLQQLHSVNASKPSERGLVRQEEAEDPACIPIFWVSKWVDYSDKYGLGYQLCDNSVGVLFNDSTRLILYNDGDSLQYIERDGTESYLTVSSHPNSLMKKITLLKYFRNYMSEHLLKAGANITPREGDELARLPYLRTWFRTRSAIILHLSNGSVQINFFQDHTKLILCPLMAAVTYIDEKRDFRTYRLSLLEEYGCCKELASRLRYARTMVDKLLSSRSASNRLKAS

SMILES	Activity: ratio of the luminescence value of each Exemplary Compound treatment group to DMSO treatment group (PLK1)	IC50 (H526 cell line) [µM]	IC50 (MRC-5 cell line; [1]) [nM]	IC50 (MRC-5 cell line; [2]) [nM]
COc1cc(C(=O)NN2CCC(N3CC4(CCN(c5ccc(N(C)C6CCC(=O)NC6=O)cc5F)CC4)C3)CC2)ccc1Nc1ncc2c(n1)N(C(C)C)CC(F)(F)C(=O)N2C (stereo not drawn) [Compound 33, 4-((7,7-difluoro-9-isopropyl-5-methyl-6-oxo-6,7,8,9-tetrahydro-5H-pyrimido[4,5-b][1,4]diazepin-2-yl)amino)-N-(4-(7-(4-((2,6-dioxopiperidin-3-yl)(methyl)amino)-2-fluorophenyl)-2,7-diazaspiro[3.5]nonan-2-yl)piperidin-1-yl)-3-methoxybenzamide]	++ (++<0.6)	< 0.05	25000	–
COc1cc(C(=O)NC2CCC(N(C)CC3CCN(c4ccc(NC5CCC(=O)NC5=O)cc4F)CC3)CC2)ccc1Nc1ncc2c(n1)N(C1CCCC1)CC(F)(F)C(=O)N2C (stereo not drawn) [Compound 34, 4-((9-cyclopentyl-7,7-difluoro-5-methyl-6-oxo-6,7,8,9-tetrahydro-5H-pyrimido[4,5-b][1,4]diazepin-2-yl)amino)-N-((1r,4r)-4-(((1-(4-((2,6-dioxopiperidin-3-yl)amino)-2-fluorophenyl)piperidin-4-yl)methyl)(methyl)amino)cyclohexyl)-3-methoxybenzamide]	+++ (+++: <0.3)	< 0.03	–	> 10000
COc1cc(C(=O)NC2CC3(CCN(CC4CCN(c5ccc(OC6CCC(=O)NC6=O)cc5F)CC4)CC3)C2)ccc1Nc1ncc2c(n1)N(C(C)C)CC(F)(F)C(=O)N2C (stereo not drawn) [Compound 35, 4-((7,7-difluoro-9-isopropyl-5-methyl-6-oxo-6,7,8,9-tetrahydro-5H-pyrimido[4,5-b][1,4]diazepin-2-yl)amino)-N-(7-((1-(4-((2,6-dioxopiperidin-3-yl)oxy)-2-fluorophenyl)piperidin-4-yl)methyl)-7-azaspiro[3.5]nonan-2-yl)-3-methoxybenzamide]	+++ (+++: <0.3)	< 0.05	16900	–
COc1cc(C(=O)NC2CC3(CCN(CC4CCN(c5ccc(OC6CCC(=O)NC6=O)cc5)CC4)CC3)C2)ccc1Nc1ncc2c(n1)N(C(C)C)CC(F)(F)C(=O)N2C (stereo not drawn) [Compound 36, 4-((7,7-difluoro-9-isopropyl-5-methyl-6-oxo-6,7,8,9-tetrahydro-5H-pyrimido[4,5-b][1,4]diazepin-2-yl)amino)-N-(7-((1-(4-((2,6-dioxopiperidin-3-yl)oxy)phenyl)piperidin-4-yl)methyl)-7-azaspiro[3.5]nonan-2-yl)-3-methoxybenzamide]	+++ (+++: <0.3)	< 0.03	9800	–
COc1cc(C(=O)NC2CCN(CCC3CCN(c4cccc5c4n(C)c(=O)n5C4CCC(=O)NC4=O)CC3)CC2)ccc1Nc1ncc2c(n1)N(C1CCCC1)CC(F)(F)C(=O)N2C (stereo not drawn) [Compound 37, 4-((9-cyclopentyl-7,7-difluoro-5-methyl-6-oxo-6,7,8,9-tetrahydro-5H-pyrimido[4,5-b][1,4]diazepin-2-yl)amino)-N-(1-(2-(1-(1-(2,6-dioxopiperidin-3-yl)-3-methyl-2-oxo-2,3-dihydro-1H-benzo[d]imidazol-4-yl)piperidin-4-yl)ethyl)piperidin-4-yl)-3-methoxybenzamide]	++ (++<0.6)	< 0.05	–	> 10000
COc1cc(C(=O)NC2CC3(CCN(CC4CCN(c5cccc6c5n(C)c(=O)n6C5CCC(=O)NC5=O)CC4)CC3)C2)ccc1Nc1ncc2c(n1)N(C(C)C)CC(F)(F)C(=O)N2C (stereo not drawn) [Compound 38, 4-((7,7-difluoro-9-isopropyl-5-methyl-6-oxo-6,7,8,9-tetrahydro-5H-pyrimido[4,5-b][1,4]diazepin-2-yl)amino)-N-(7-((1-(1-(2,6-dioxopiperidin-3-yl)-3-methyl-2-oxo-2,3-dihydro-1H-benzo[d]imidazol-4-yl)piperidin-4-yl)methyl)-7-azaspiro[3.5]nonan-2-yl)-3-methoxybenzamide]	++ (++<0.6)	< 0.03	3960	–

Source: patent publication US20250101025A1, “NOVEL PLK1 DEGRADATION INDUCING COMPOUND” (UPPTHERA, INC., priority 2021, published 2025)
